Reference: article PMC10747729, “Permeation Protection by Waterproofing Mucosal Membranes” (Pharmaceutics, 2023)

Tests used:
[1] = In vitro release/permeation assay through porcine skin, Franz diffusion cells; format: in vitro ADME; conditions: infinite dose 300 µL of 1% solution; for Papp at 4 h, 1 %: pig, read-out: Permeability Coef. Kp (converted)
Protocol: (§1) The in vitro release test was conducted with artificial membrane (Whatman® Nuclepore™) and porcine sublingual mucosa as well as pig skin membrane as a reference. Biological membranes (mucosa and skin) were dermatomed at 500 ± 50 µm of thickness. Membranes were placed in vertical Franz diffusion cells and conditioned in a thermostatic bath at 43 °C to assure a membrane surface temperature of 32 ± 1 °C as in the previous TMWL study. The receptor solution used was the same PBS:EtOH (1:1) as before. Data on the TWML, temperature, and humidity of the membrane were obtained before initiating the test with the Tewameter TM300 (Courage-Khazaka, Cologne, Germany).
(§2) On the modified mucosas, a volume of 70 µL of each formulation was applied and after one hour an infinite dose (300 µL) of tested solution was applied. […] Receptor fluid was collected at different times (30 min, 1 h, 2 h, 4 h) and the same volume was immediately replaced with fresh fluid. The aliquots were appropriately diluted and filtered (0.45 µm, Cameo, Sigma-Aldrich, St. Louis, MO, USA) before their analysis with HPLC/DAD.
(§3) The release of the active substances was determined with the cumulative amount released (Qn, μg/cm^2), which represents the cumulative amount of the active substances quantified in the receptor fluid per area of the sample [34]. The equation is as follows (1):(1) Qn=Cn×Vc+∑i=1n−1(Ci×Vs)/A, where Qn is the cumulative amount of active substance released at time n (μg/cm^2); Cn is the concentration of active substance in the collected sample (μg/mL); Vc is the volume of the Franz diffusion cell (3 mL); ∑i=1n−1 Ci is the sum of the active substance concentrations (µg/mL) determined in sampling intervals 1 to n − 1; Vs is the volume of the collected sample; and A is the surface area of the applied membrane (1.86 cm^2).
(§4) The best absorption model to describe the release of active substances was obtained from the graphic representation of data release (values/time), as described by Mallandrich et al.. All data collected were processed over time to obtain the best fit equation for each membrane using the nonlinear regression software STATGRAPHICS® plus 5 (Statgraphics Technologies, Inc., The Plains, VA, USA). Selection of the best equation was made in accordance with the highest correlation coefficient corrected for the number of degrees of freedom (R^2). Following that analysis, the parameters of the flow (J, […]), the permeability coefficient (Kp, cm/h), the delay time (Tl, h), the maximum concentration (Cmax, µg/mL), the maximum time (tmax, h), and the area under the curve (AUC) were calculated for each membrane.
(§5) The software was OpenLab (version 2.2.0). […] Methanol (Merck, Darmstadt, Germany) was used as an extraction solvent for all active substances. All analytical procedures were validated following the guidelines developed by the International Conference on Harmonization (ICH). The calibration curve, limit of quantification (LoQ), and limit of detection (LoD) were obtained and are detailed in Table 5.

[2] = In vitro release/permeation assay through porcine sublingual mucosa, unmodified or modified with formulations, Franz diffusion cells; format: in vitro ADME; conditions: for permeability (in words): across skin, mucosa and modified mucosa; for decrease in the permeability coefficient promoted by F16: mucosa modified with F16 vs unmodified mucosa; for Papp at 4 h, 1 %: pig, read-out: Permeability Coef. Kp (converted); for area under the curve, flux and permeability through unmodified mucosa compared to skin: unmodified mucosa vs porcine skin
Protocol: as §1, §2, §3, §4, §5

[3] = cited from earlier work
[4] = cited from earlier work; remark: listed apart in the source

Compound	Flux. J [1] [µg/cm^2/h]	Lag Time. TL [1] [h]	Papp at 4 h, 1 % [1] [×10⁻⁶ cm/s]	Flux. J ([2]; MUCOSA F3) [µg/cm^2/h]	Lag Time. TL ([2]; MUCOSA F3) [h]	Flux. J ([2]; MUCOSA F6) [µg/cm^2/h]	Lag Time. TL ([2]; MUCOSA F6) [h]	Flux. J ([2]; MUCOSA F16) [µg/cm^2/h]	Lag Time. TL ([2]; MUCOSA F16) [h]	Flux. J ([2]; MUCOSA unmodified) [µg/cm^2/h]	Lag Time. TL ([2]; MUCOSA unmodified) [h]	permeability (in words) [2]	decrease in the permeability coefficient promoted by F16 [2]	Papp at 4 h, 1 % ([2]; MUCOSA F3) [×10⁻⁶ cm/s]	Papp at 4 h, 1 % ([2]; MUCOSA F6) [×10⁻⁶ cm/s]	Papp at 4 h, 1 % ([2]; MUCOSA F16) [×10⁻⁶ cm/s]	Papp at 4 h, 1 % ([2]; MUCOSA unmodified) [×10⁻⁶ cm/s]	area under the curve, flux and permeability through unmodified mucosa compared to skin [2]	pKa [3]	LogP (pH7.4) [4]
Cn1c(=O)c2c(ncn2C)n(C)c1=O [CAF, Caffeine]	75.09 ± 51.32	0.65 ± 0.24	1.68	102.73 ± 30.73	0.10 ± 0.08	611.08 ± 85.12	0.28 ± 0.08	78.93 ± 11.05	-0.18 ± 0.03	428.40 ± 81.41	0.04 ± 0.34	high permeability	approximately 80%	2.3	13.7	1.77	9.6	approximately four times higher		
CC(C)Cc1ccc(C(C)C(=O)O)cc1 (stereo not shown) [IBU, Ibuprofen]	24.79 ± 2.75	-0.24 ± 0.19	0.569	498.25 ± 49.45	0.23 ± 0.01	451.01 ± 98.04	0.35 ± 0.06	74.41 ± 0.16	0.15 ± 0.003	346.91± 5.87	0.17 ± 0.07	intermediate permeability	approximately 80%	11.4	10.4	1.71	7.96	14 times higher		
C[C@@H]1C[C@H]2[C@@H]3CCC4=CC(=O)C=C[C@]4(C)[C@@]3(F)[C@@H](O)C[C@]2(C)[C@@]1(O)C(=O)CO [DEX, Dexamethasone]	5.84 ± 3.46	0.62 ± 0.16		330.43 ± 11.68	0.36 ± 0.04	289.38 ± 99.51	0.64 ± 0.36	68.26 ± 1.67	-0.11 ± 0.27	335.25 ± 61.25	0.31 ± 0.13		approximately 80%						12.1	
Ivermectin	3.13 ± 0.86	0.59 ± 0.28		87.23 ± 21.83	0.28 ± 0.02	144.86 ± 29.93	0.32 ± 0.10	41.70 ± 5.67	-0.09 ± 0.46	63.75 ± 1.57	0.24 ± 0.001		approximately 40%						12.47	5.83
